We go through 43 compounds from patent US9718790B2, “Triazine derivative and pharmaceutical composition having an analgesic activity comprising the same” (SHIONOGI & CO., LTD., priority 2010, dated 2017).

human P2X3 receptor, sequence (P56373 whole entry): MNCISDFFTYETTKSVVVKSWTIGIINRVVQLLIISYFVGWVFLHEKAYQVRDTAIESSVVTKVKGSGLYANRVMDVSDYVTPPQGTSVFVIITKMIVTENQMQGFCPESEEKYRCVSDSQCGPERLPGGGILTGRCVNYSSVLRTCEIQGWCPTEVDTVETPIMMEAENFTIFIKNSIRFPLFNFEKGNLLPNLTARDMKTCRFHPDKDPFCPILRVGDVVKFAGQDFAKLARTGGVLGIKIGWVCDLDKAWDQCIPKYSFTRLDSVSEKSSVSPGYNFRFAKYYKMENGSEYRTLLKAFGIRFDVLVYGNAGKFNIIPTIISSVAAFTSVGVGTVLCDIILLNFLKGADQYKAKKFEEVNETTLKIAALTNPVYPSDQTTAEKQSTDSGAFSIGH

One experiment addresses human P2X3 receptor (Homo sapiens (Human), UniProt P56373). Nature of the experiment: Evaluation of human P2X3 receptor inhibitory activity (Fluo-3 calcium fluorescence, FDSS 3000, ATP stimulation).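 Note: stimulus was 50 nM ATP with fluorescence followed for 3 min, and the response per well was peak post-ATP fluorescence divided by the reading at measurement start.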 In kind it is cell-based. Conditions: C6BU-1 cells stably expressing human P2X3 receptor.
As for `Cc1ccc(Cn2c(=O)n([C@@H](C)[C@@H](C)C(=O)O)c(=O)[nH]/c2=N\c2ccc(OC3CCC3)c(C)c2)cc1` [Compound I-1408], the IC50 – broadly, the concentration needed to halve the response being measured – worked out at 16 nM. Turning to `O=C(Cn1c(=O)[nH]/c(=N\c2ccc(Oc3ccnc(O)c3)cc2)n(Cc2ccc(Cl)cc2)c1=O)NCCO` [Compound I-1979], the IC50 was determined as 4 nM. In the case of `Cc1ccc(Cn2c(=O)n(C[C@H](C)C(=O)O)c(=O)[nH]/c2=N\c2ccc(NS(C)(=O)=O)cc2)cc1` [Compound I-1417], the IC50 came out at 207 nM. As for `COC(=O)[C@H](C)[C@H](C)n1c(=O)[nH]/c(=N\c2ccc(OC3CCC3)c(C)c2)n(Cc2ccc(C)cc2)c1=O` [Compound I-1402], the IC50 turned out to be 33 nM.

`CC(C)Oc1ccc(/N=c2\[nH]c(=O)n(CC(=O)N3CCNCC3)c(=O)n2Cc2ccc(Cl)cc2)cc1Cl` [Compound I-0742]: the IC50 is 38 nM.

With `CCCn1c(=O)[nH]/c(=N\c2ccc(Oc3ccc(C(=O)O)nc3)cc2)n(Cc2ccc(Cl)cc2)c1=O` [Compound I-2161], the IC50 was 14 nM. Same read-out and setting: the figure for `Cc1ccc(Cn2c(=O)n([C@@H](C)[C@@H](C)C(=O)O)c(=O)[nH]/c2=N\c2ccc(N3CCCCC3)cc2)cc1` [Compound I-1394] is 44 nM. On the same count and under the same terms, the same measure for `Cc1ccc(Cn2c(=O)n([C@H](C)[C@H](C)C(=O)O)c(=O)[nH]/c2=N\c2ccc(N3CCCCC3)cc2)cc1` [Compound I-1459]: 34 nM; for `CC(C)n1c(=O)n(Cc2ccc(Cl)cc2)c(=O)n(Cc2ccc(C(F)(F)F)cc2)c1=O` [Compound I-1289, 1-(4-chlorobenzyl)-3-isopropyl-5-(4-trifluoromethylbenzyl)-1,3,5-triazinane-2,4,6-trione]: 510 nM.

`Cc1cc(/N=c2\[nH]c(=O)n(C(C)(C)CC(=O)O)c(=O)n2Cc2ccc(Cl)cc2)ccc1OC(C)C` [Compound I-0804]: the IC50 is 132 nM. Take `C[C@@H](Oc1ccc(/N=c2\[nH]c(=O)n(CC(N)=O)c(=O)n2Cc2ccc(Cl)cc2)cc1)C(F)(F)F` [Compound I-1959]: the IC50 is 65 nM. For the compound `CC(C)Oc1ccc(/N=c2\[nH]c(=O)n(C(C)(C)C(=O)NCCO)c(=O)n2Cc2ccc(Cl)cc2)cc1Cl` [Compound I-0705], the IC50 stood at 11 nM. For `Cn1c(=O)[nH]/c(=N\c2ccc(Oc3ccc(C(=O)O)cc3)cc2)n(Cc2ccc(Cl)cc2)c1=O` [Compound I-2063], the IC50 worked out at 120 nM. For `CCn1c(=O)[nH]/c(=N\c2ccc(Oc3cncc(C(=O)OC)c3)cc2)n(Cc2ccc(F)cc2)c1=O` [Compound I-2111], the IC50 was found to be 44 nM.

With `CC(C)Oc1ccc(/N=c2\[nH]c(=O)n(CC(=O)NCCC3CCOCC3)c(=O)n2Cc2ccc(Cl)cc2)cc1Cl` [Compound I-0666], the IC50 was determined as 8 nM.

Turning to `Cc1ccc(Cn2c(=O)n(C[C@H](C)C(=O)O)c(=O)[nH]/c2=N\c2ccc(CC(C)C)nc2)cc1` [Compound I-1359], the IC50 was 724 nM.

The same experiment, now with this note: C6BU-1 cells stably expressing human P2X3 receptor, Fluo-3 fluorescence, FDSS 3000.
On to `Cc1ccc(Cn2c(=O)n(C[C@H](C)C(=O)O)c(=O)[nH]/c2=N\c2ccc(N3CCCCC3)cc2)cc1` [Compound I-1093], for which the IC50 worked out at 38 nM. With `CNC(=O)Cn1c(=O)[nH]/c(=N\c2ccc(Oc3ccc(O)nc3)cc2)n(Cc2ccc(Cl)cc2)c1=O` [Compound I-1901], the IC50 worked out at 15 nM.

`C[C@@H](C(=O)O)[C@H](C)n1c(=O)[nH]/c(=N\c2ccc3c(c2)CCOC3)n(Cc2ccc(Cl)cc2)c1=O` [Compound I-1810]: the half-maximal inhibitory concentration (IC50) was 682 nM.

On to `COC(=O)[C@@H](C)Cn1c(=O)[nH]/c(=N\c2ccc(OC(C)C)c(O)c2)n(Cc2ccc(C)cc2)c1=O` [Compound I-1128], for which the IC50 was 21 nM. As for `CCn1c(=O)[nH]/c(=N\c2ccc(Oc3ccc(O)nc3)cc2)n(Cc2ccc(Cl)cc2)c1=O` [Compound I-1848], the IC50 was 14 nM.

On to `CCc1oc2ccc(/N=c3\[nH]c(=O)n(C[C@H](CC)NC(C)=O)c(=O)n3Cc3ccc(Cl)cc3)cc2c1C` [Compound I-1708], for which the IC50 was 17 nM.

On to `CC(C)Oc1ccc(Nc2nc(=O)n(C(C)C)c(=O)n2Cc2ccc(F)cc2)cc1C#N` [Compound I-0227], for which the IC50 was determined as 910 nM. The same measure, in the same setting: the figure for `Cc1[nH]c2ccc(/N=c3\[nH]c(=O)n([C@@H](C)[C@@H](C)C(=O)O)c(=O)n3Cc3ccc(Cl)cc3)cc2c1C` [Compound I-1771] is 14 nM; for `C[C@@H](C(=O)O)[C@H](C)n1c(=O)[nH]/c(=N\c2ccc3c(c2)CC/C3=N\O)n(Cc2ccc(Cl)cc2)c1=O` [Compound I-1777] it is 636 nM.

The experiment is the same for the next values; noted with them: human P2X3 receptor, Test Example 1.
On to `COC(=O)c1cccc(Oc2ccc(/N=c3\[nH]c(=O)n(C)c(=O)n3Cc3ccc(Cl)cc3)cc2)n1` [Compound I-2271], for which the IC50 was 36 nM. As for `COC(=O)[C@@H](C)Cn1c(=O)[nH]/c(=N\c2cc(Cl)cc(Cl)c2)n(Cc2ccc(C)cc2)c1=O` [Compound I-1497], the IC50 was 619 nM. Turning to `CCn1c(=O)[nH]/c(=N\c2ccc(Oc3cccc(C(=O)O)n3)cc2)n(Cc2ccc(F)cc2)c1=O` [Compound I-2496], the IC50 came out at 30 nM.

For `O=c1[nH]/c(=N\c2ccc(Oc3nccs3)cc2)n(Cc2ccc(Cl)cc2)c(=O)n1C[C@H](O)CO` [Compound I-2294], the IC50 worked out at 5 nM. Regarding `NC(=O)Cn1c(=O)[nH]/c(=N\c2ccc(Oc3cccc(F)n3)cc2)n(Cc2ccc(Cl)cc2)c1=O` [Compound I-2584], the IC50 worked out at 8 nM.

With `CC(C)Oc1ccc(-n2c(NCc3ccc(Cl)cc3)nc(=S)n(C(C)C)c2=O)cc1` [Compound I-2255], the IC50 came out at 543 nM. Regarding `CCn1c(=O)[nH]/c(=N\c2ccc3nc(N(C)C)sc3c2)n(Cc2ccc(Cl)cc2)c1=O` [Compound I-2267], the IC50 was found to be 331 nM. For the compound `CCn1c(=O)[nH]/c(=N\c2ccc(Oc3ccnc(C(N)=O)c3)cc2)n(Cc2ccc(Cl)cn2)c1=O` [Compound I-2237], the IC50 turned out to be 20 nM. As to `CCn1c(=O)[nH]/c(=N\c2ccc(Oc3cccc(C(=O)OC)n3)cc2)n(Cc2ccc(Cl)cn2)c1=O` [Compound I-2238], the IC50 is 148 nM. `Cc1nsc(Oc2ccc(/N=c3\[nH]c(=O)n(C[C@@H](O)CO)c(=O)n3Cc3ccc(Cl)cc3)cc2)n1` [Compound I-2577]: the IC50 stood at 8 nM. For the compound `Cc1ccc(Cn2c(=O)n(C[C@H](C)C(=O)O)c(=O)[nH]/c2=N\c2ccc(Oc3ccccc3)nc2)cc1` [Compound I-1517], the IC50 was 240 nM.

Take `Cc1ccc(Cn2c(=O)n(CCC(=O)O)c(=O)[nH]/c2=N\c2ccc(Oc3ncccn3)cc2)cc1` [Compound I-2558]: the IC50 was determined as 22 nM. The same measure, in the same setting: the same measure for `CCn1c(=O)[nH]/c(=N\c2ccc(Oc3ccc(C(=O)O)nn3)cc2)n(Cc2ccc(C)cc2)c1=O` [Compound I-2383]: 15 nM; for `CNC(=O)[C@@H](CCO)n1c(=O)[nH]/c(=N\c2ccc(OC(C)C)c(C)c2)n(Cc2ccc(Cl)cc2)c1=O` [Compound I-0870]: 530 nM.

Turning to `O=c1[nH]/c(=N\c2ccc(Oc3ccn[nH]3)cc2)n(Cc2ccc(Cl)cc2)c(=O)n1C[C@H](O)CO` [Compound I-2453], the IC50 worked out at 64 nM. For `CCn1c(=O)[nH]/c(=N\c2ccc(Oc3ccnc(NC(=O)NC)c3)cc2)n(Cc2ccc(Cl)cc2)c1=O` [Compound I-2425], the IC50 came out at 2 nM.

As for `Cc1ccc(Cn2c(=O)n(CCC(=O)O)c(=O)[nH]/c2=N\c2ccc3nc(C)sc3c2)cc1` [Compound I-1521], the IC50 came out at 22 nM. Same read-out and setting: the figure for `COC(=O)CCn1c(=O)[nH]/c(=N\c2ccc(Oc3cc(C#N)ccn3)cc2)n(Cc2ccc(C)cc2)c1=O` [Compound I-2660] is 3 nM.
